Columns and labels:
wheat (winter wheat) = test: Test C pre-/postemergence herbicide test; assay type: in vivo, Triticum aestivum
Summary of the method: (§1)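 Greenhouse plants scored visually against untreated controls 13–15 days after treatment, 0 = no effect, 100 = complete control. Test chemicals in a non-phytotoxic solvent with surfactant were applied either to soil (loam/sand) at planting or to foliage of 1- to 4-leaf plants, 2–18 cm tall.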

pigweed = test: Test C pre-/postemergence herbicide test; assay type: in vivo, Amaranthus retroflexus
Summary of the method: as §1

galium = test: Test C pre-/postemergence herbicide test; assay type: in vivo, Galium aparine
Summary of the method: as §1

foxtail, giant = test: Test C pre-/postemergence herbicide test; assay type: in vivo, Setaria faberii
Summary of the method: as §1

rice = test: Test B flooded paddy test; assay type: in vivo, Oryza sativa; conditions: Flood, scale of 0 to 100 where 0 is no effect and 100 is complete control
Summary of the method: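 In-water application to pots flooded 3 cm deep, plants at 2-leaf stage. Held in greenhouse 13–15 days at constant flood depth. Scored 0–100 by eye against controls.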

wheat = test: Test A pre-/postemergence herbicide test; assay type: in vivo, Triticum aestivum
Summary of the method: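 Visual 0–100 ratings (100 = complete control) made about 10 days after treatment, greenhouse-held plants compared with untreated controls. Treatments: postemergence sprays on one- to two-leaf plants (2–10 cm tall) and preemergence directed soil sprays after planting in loam–sand, chemicals formulated in non-phytotoxic solvent containing surfactant.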

[1] = Postemergence, 16 g ai/ha, scale 0 to 100 (0 no effect, 100 complete control)
[2] = Postemergence, 31 g ai/ha, scale 0 to 100 (0 no effect, 100 complete control)
[3] = Postemergence, 62 g ai/ha, scale 0 (no effect) to 100 (complete control)
[4] = Postemergence, 125 g ai/ha, scale 0 to 100 (0 no effect, 100 complete control)
[5] = Preemergence, 31 g ai/ha, scale 0 to 100, 0 is no effect and 100 is complete control
[6] = Preemergence, 62 g ai/ha, scale 0 to 100 (0 no effect, 100 complete control)
[7] = Preemergence, 16 g ai/ha, scale 0 to 100
[8] = Preemergence, 125 g ai/ha, scale 0 to 100 (0 no effect, 100 complete control)
[9] = Postemergence, 125 g ai/ha, visual rating on 0 to 100 scale (0 no effect, 100 complete control), approx. 10 days
[10] = Postemergence, 500 g ai/ha, 0 to 100 scale (0 no effect, 100 complete control)
[11] = Preemergence, 62 g ai/ha, scale 0 to 100
[12] = Postemergence, 125 g ai/ha, 0 to 100 scale, 0 no effect, 100 complete control
[13] = Preemergence, 125 g ai/ha, visual rating on 0 to 100 scale (0 no effect, 100 complete control)
[14] = preemergence, 500 g ai/ha, 0 to 100 scale
[15] = Preemergence, 31 g ai/ha, scale 0 to 100 (0 no effect, 100 complete control)
[16] = Preemergence, 250 g ai/ha, scale 0 to 100 (0 no effect, 100 complete control)
[17] = Postemergence, 125 g ai/ha, 0 to 100 scale, 0 is no effect, 100 is complete control
[18] = Postemergence, 250 g ai/ha, scale 0 to 100 (0 no effect, 100 complete control)

| SMILES | Wheat plant response rating (wheat (winter wheat); [5]) | Wheat plant response rating (wheat (winter wheat); [6]) | Pigweed plant response rating (pigweed; [5]) | Pigweed plant response rating (pigweed; [6]) | Plant response rating, Pigweed (pigweed; [8]) | Galium plant response rating (galium; [5]) | Galium plant response rating (galium; [6]) | Plant response rating, Galium (galium; [8]) | Foxtail, Giant plant response rating (foxtail, giant; [5]) | Foxtail, Giant plant response rating (foxtail, giant; [6]) | Plant response rating, Foxtail, Giant (foxtail, giant; [8]) | Plant response rating, Wheat (wheat; [10]) | Plant response rating, Wheat (wheat (winter wheat); [11]) | Plant response rating, Wheat (wheat (winter wheat); [8]) | Plant response rating (scale of 0 to 100), Wheat (wheat (winter wheat); Preemergence, 250 g ai/ha) | Plant response rating, Pigweed (pigweed; [11]) | Plant response rating (scale of 0 to 100), Pigweed (pigweed; Preemergence, 250 g ai/ha) | Plant response rating, Galium (galium; [11]) | Plant response rating (scale of 0 to 100), Galium (galium; Preemergence, 250 g ai/ha) | Plant response rating, Rice (rice; 250 g ai/ha) | also measured |
| --- | --- | --- | --- | --- | --- | --- | --- | --- | --- | --- | --- | --- | --- | --- | --- | --- | --- | --- | --- | --- | --- |
| CN1CC(c2ccc(C(F)(F)F)cc2)C(C(=O)Nc2ccccc2F)C1=O (stereo not drawn) [Compound 304] | 40 | 50 | 55 | 75 | 85 | 85 | 95 | 85 | 90 | 95 | 95 | 60 |  |  |  |  |  |  |  |  | Plant response rating, Wheat (wheat (winter wheat); [1]): 0; Plant response rating, Wheat (wheat (winter wheat); [2]): 0; Plant response rating, Wheat (wheat (winter wheat); [3]): 0; Plant response rating, Wheat (wheat (winter wheat); [4]): 0; Plant response rating, Wheat (wheat (winter wheat); [7]): 5; Plant response rating, Pigweed (pigweed; [1]): 25; Plant response rating, Pigweed (pigweed; [2]): 35; Plant response rating, Pigweed (pigweed; [3]): 55; Plant response rating, Pigweed (pigweed; [4]): 55; Plant response rating, Pigweed (pigweed; [7]): 40; Plant response rating, Galium (galium; [7]): 100; Plant response rating, Foxtail, Giant (foxtail, giant; [1]): 0; Plant response rating, Foxtail, Giant (foxtail, giant; [2]): 0; Plant response rating, Foxtail, Giant (foxtail, giant; [3]): 10; Plant response rating, Foxtail, Giant (foxtail, giant; [4]): 45; Plant response rating, Foxtail, Giant (foxtail, giant; [7]): 90; Plant response rating, Rice (rice; 500 g ai/ha): 35; Plant response rating, Wheat (wheat; [9]): 40 |
| O=C1NCC(c2ccc(F)c(C(F)(F)F)c2)C1C(=O)Nc1ccccc1C(F)(F)F (racemic) [Compound 78] | 10 |  | 0 |  | 40 | 50 |  | 60 | 85 |  | 95 | 50 | 30 | 60 | 90 | 40 | 40 | 50 | 85 | 0 | Plant response rating, Foxtail, Giant (foxtail, giant; [11]): 95; Plant response rating (scale of 0 to 100), Foxtail, Giant (foxtail, giant; Preemergence, 250 g ai/ha): 98; Plant response rating, Wheat (wheat; [12]): 40; Wheat plant response rating (wheat; [13]): 0; Plant response rating, Wheat (wheat; [14]): 0 |
| O=C1NCC(c2cc(F)c(F)c(F)c2)C1C(=O)Nc1ccccc1C(F)(F)F (racemic) [Compound 33] |  |  |  |  | 0 |  |  | 60 |  |  | 98 |  | 0 | 35 |  | 0 |  | 0 |  | 0 | Galium plant response rating (galium; [15]): 0; Plant response rating, Galium (galium; [16]): 90; Foxtail, Giant plant response rating (foxtail, giant; [15]): 75; Plant response rating, Foxtail, Giant (foxtail, giant; [11]): 95; Plant response rating, Foxtail, Giant (foxtail, giant; [16]): 98; Plant response rating, Wheat (wheat; Postemergence, 1000 g ai/ha, 0 to 100 scale (0 no effect, 100 complete control)): 60; Plant response rating, Wheat (wheat; Preemergence, 1000 g ai/ha, visual rating on 0 to 100 scale (0 no effect, 100 complete control), approx. 10 days): 50 |
| O=C1NCC(c2cccc(C(F)(F)F)c2)C1C(=O)Nc1cccc(F)c1F (stereo not drawn) [Compound 241] | 0 | 45 | 0 | 0 | 25 | 20 | 80 | 85 | 90 | 95 | 95 | 70 |  | 90 | 80 |  | 70 |  | 85 | 0 | Plant response rating (scale of 0 to 100), Foxtail, Giant (foxtail, giant; Preemergence, 250 g ai/ha): 95; Plant response rating, Rice (rice; 1000 g ai/ha): 10; Plant response rating, Wheat (wheat; [17]): 30; Plant response rating, Wheat (wheat; Preemergence, 125 g ai/ha, 0 to 100 scale where 0 is no effect and 100 is complete control): 20; Plant response rating, Wheat (wheat; preemergence, 500 g ai/ha, 0 to 100 scale, 0 is no effect and 100 is complete control): 30 |
| O=C1NCC(c2ccc(F)c(Cl)c2)C1C(=O)Nc1cccc(F)c1F (stereo not drawn) [Compound 59] |  |  |  |  |  |  |  | 30 |  |  | 85 | 60 | 0 | 0 |  | 35 |  | 5 |  | 20 | Galium plant response rating (galium; [15]): 0; Plant response rating, Galium (galium; [16]): 85; Foxtail, Giant plant response rating (foxtail, giant; [15]): 50; Plant response rating, Foxtail, Giant (foxtail, giant; [11]): 85; Plant response rating, Foxtail, Giant (foxtail, giant; [16]): 90; Plant response rating, Wheat (wheat; [12]): 0; Wheat plant response rating (wheat; [13]): 0; Plant response rating, Wheat (wheat; [14]): 0 |
| O=C1NCC(c2cc(F)cc(F)c2)C1C(=O)Nc1cccc(F)c1F (racemic) [Compound 279] | 0 | 15 | 0 | 5 | 0 | 0 | 0 | 85 | 90 | 95 | 98 | 60 |  |  | 30 |  | 75 |  | 85 |  | Plant response rating, Wheat (wheat (winter wheat); [2]): 0; Plant response rating, Wheat (wheat (winter wheat); [3]): 0; Plant response rating, Wheat (wheat (winter wheat); [4]): 0; Plant response rating, Wheat (wheat (winter wheat); [18]): 0; Plant response rating, Pigweed (pigweed; [2]): 30; Plant response rating, Pigweed (pigweed; [3]): 10; Plant response rating, Pigweed (pigweed; [4]): 30; Plant response rating, Pigweed (pigweed; [18]): 20; Plant response rating, Galium (galium; [2]): 0; Plant response rating, Galium (galium; [3]): 15; Plant response rating, Galium (galium; [4]): 30; Plant response rating, Galium (galium; [18]): 30; Plant response rating, Foxtail, Giant (foxtail, giant; [2]): 0; Plant response rating, Foxtail, Giant (foxtail, giant; [3]): 30; Plant response rating, Foxtail, Giant (foxtail, giant; [4]): 90; Plant response rating, Foxtail, Giant (foxtail, giant; [18]): 90; Plant response rating (scale of 0 to 100), Foxtail, Giant (foxtail, giant; Preemergence, 250 g ai/ha): 98; Plant response rating, Rice (rice; 500 g ai/ha): 10; Plant response rating, Wheat (wheat; [9]): 40 |
| O=C1NCC(c2ccc(C(F)(F)F)cc2)C1C(=O)Nc1ccccc1Cl (stereo not drawn) [Compound 233] | 0 | 0 | 50 | 50 | 60 | 0 | 80 | 90 | 85 | 90 | 90 |  |  | 0 | 0 |  | 70 |  | 90 |  | Plant response rating (scale of 0 to 100), Foxtail, Giant (foxtail, giant; Preemergence, 250 g ai/ha): 95; Plant response rating, Rice (rice; 500 g ai/ha): 0; Plant response rating, Wheat (wheat; [17]): 0; Wheat plant response rating (0 to 100 scale, 0 is no effect, 100 is complete control) (wheat; Postemergence, 500 g ai/ha): 20 |
| O=C1NCC(c2cccc(Br)c2)C1C(=O)Nc1cccc(F)c1F (stereo not drawn) [Compound 64] |  |  |  |  | 30 |  |  | 0 |  |  | 90 | 40 | 5 | 15 |  | 0 |  | 0 |  | 15 | Galium plant response rating (galium; [15]): 0; Plant response rating, Galium (galium; [16]): 0; Foxtail, Giant plant response rating (foxtail, giant; [15]): 50; Plant response rating, Foxtail, Giant (foxtail, giant; [11]): 80; Plant response rating, Foxtail, Giant (foxtail, giant; [16]): 98; Plant response rating, Wheat (wheat; [12]): 0; Wheat plant response rating (wheat; [13]): 0; Plant response rating, Wheat (wheat; [14]): 0 |
